Laboratory results from BindingDB's records for doi:10.1074/jbc.M113.487777 (McGill University, 2013).

Target: T1, Inositol-pentakisphosphate 2-kinase (Mouse-ear cress, UniProt Q93YN9)
T1 sequence (Q93YN9 whole entry): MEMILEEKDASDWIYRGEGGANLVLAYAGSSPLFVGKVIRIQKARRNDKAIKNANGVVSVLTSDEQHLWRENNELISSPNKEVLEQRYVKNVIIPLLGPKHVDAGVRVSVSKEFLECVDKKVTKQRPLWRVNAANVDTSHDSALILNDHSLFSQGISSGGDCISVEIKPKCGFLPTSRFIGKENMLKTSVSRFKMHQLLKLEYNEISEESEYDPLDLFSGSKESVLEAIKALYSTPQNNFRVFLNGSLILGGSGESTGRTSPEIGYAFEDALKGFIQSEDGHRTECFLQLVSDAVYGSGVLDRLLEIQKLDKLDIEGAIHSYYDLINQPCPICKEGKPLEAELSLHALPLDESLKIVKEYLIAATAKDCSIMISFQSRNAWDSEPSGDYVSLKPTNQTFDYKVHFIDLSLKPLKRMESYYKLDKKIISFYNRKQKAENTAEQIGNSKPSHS
Test: Isothermal Titration Calorimetry (ITC)
Details: pH 7.5; 25 °C
Method: Experiments were performed on a MicroCal iTC200 titration calorimeter (GE Healthcare). Wild-type IPK1 was purified and dialyzed into ITC buffer containing 50 mM HEPES (pH 7.5), 6 mM MgCl2, 150 mM NaCl, and 1 mM tris(2-carboxyethyl)phosphine (pH 7.0). After protein dialysis was complete, dialysis buffer was used to dissolve the ligands, IP, and AMP-PNP (Jena Bioscience). Titration experiments were performed at 25 °C with 100 uM IPK1 and1mM AMP-PNP in the cell and 1-2 mM IP in the syringe to ensure a final IP:IPK1 molar ratio of at least 2:1. Titration experiments were performed at least twice for each IP, and one set was chosen to represent data.

Kd	Structure (SMILES)
18.2 µM	O=P(O)(O)O[C@H]1[C@H](O)[C@@H](OP(=O)(O)O)[C@H](OP(=O)(O)O)[C@@H](OP(=O)(O)O)[C@H]1O [1,3,4,5-Inositol tetrakisphosphate (1,3,4,5-IP4)]
26.9 µM	O=P(O)(O)O[C@@H]1[C@@H](O)[C@H](OP(=O)(O)O)[C@@H](OP(=O)(O)O)[C@@H](O)[C@H]1OP(=O)(O)O [1,3,4,6-Inositol tetrakisphosphate (1,3,4,6-IP4)]
8.2 µM	O=P(O)(O)O[C@@H]1[C@@H](OP(=O)(O)O)[C@H](OP(=O)(O)O)[C@@H](O)[C@@H](O)[C@H]1OP(=O)(O)O [1,4,5,6-Inositol tetrakisphosphate (1,4,5,6-IP4)]
7.52 µM	O=P(O)(O)O[C@H]1[C@H](OP(=O)(O)O)[C@@H](OP(=O)(O)O)[C@@H](O)[C@@H](O)[C@@H]1OP(=O)(O)O [3,4,5,6-Inositol tetrakisphosphate (3,4,5,6-IP4)]
0.6 µM	O=P(O)(O)O[C@@H]1[C@@H](OP(=O)(O)O)[C@H](OP(=O)(O)O)[C@H](O)[C@H](OP(=O)(O)O)[C@H]1OP(=O)(O)O [Inositol 1,3,4,5,6-pentakisphosphate (IP5)]
